In general, EC50 refers to the concentration at which the effect is half-maximal. High values mean weaker potency, low ones greater potency. The term CC50 denotes the concentration giving 50% cytotoxicity. A high value points to better tolerance by the cells.

In one data set the test system is HRV serotype-14. The data set can be described thus: Antirhinoviral HI-HeLa Cell Culture Assay (XTT cell protection), HRV-14. To be noted: HRV serotype-14, HI-HeLa cells. It counts as cell-based, human rhinovirus. As to the method:
(§1) In the Cell Protection Assay, the ability of compounds to protect cells against HRV infection was measured by the XTT dye reduction method. This method is described in Weislow, O. S., Kiser, R., Fine, D. L., Bader, J., Shoemaker, R. H., Boyd, M. R., J. Natl. Cancer Inst. 1989, 81, 577-586, the disclosure of which is incorporated herein by reference.
(§2) Infected or mock-infected cells were suspended at 8×10^5 cells per mL and incubated with appropriate concentrations of compounds of formula I. Two days later, XTT/PMS was added to test plates, and the amount of formazan produced was quantified spectrophotometrically at 450/650 nm. […] The therapeutic index (TI) was calculated by dividing the CC50 by the EC50.
(§3) All strains of human rhinovirus (HRV) for use in this assay were purchased from American Type Culture Collection (ATCC) except for HRV serotype-14, which was produced from the infectious cDNA clone constructed and supplied to Applicants by Dr. Robert Rueckert at the Institute for Molecular Virology, University of Wisconsin, Madison, Wis. HRV stocks were propagated, and viral assays were performed in HI-HeLa cells (ATCC). Cells were grown in Minimal Essential Medium, available from Life Technologies, with 10% fetal bovine serum.
(§4) The compounds were tested against control compounds WIN 51711, WIN 52084, and WIN 54954, all obtained from Sterling-Winthrop Pharmaceuticals, and control compound Pirodavir, obtained from Janssen Pharmaceuticals. Antiviral data obtained for the test compounds are shown in Table 2 where all data are for HRV serotype-14 unless otherwise noted in parentheses.

Another data set deals with HRV serotype 39. As to the kind of experiment: Antirhinoviral HI-HeLa Cell Culture Assay (XTT cell protection), HRV serotype 39. The data set is classed as cell-based, human rhinovirus. To be noted: HRV serotype 39, HI-HeLa cells. As to the method:
as §1, §2
(§5) All strains of human rhinovirus (HRV) for use in this assay were purchased from American Type Culture Collection (ATCC) except for HRV serotype-14, which was produced from the infectious cDNA clone constructed and supplied to Applicants by Dr. Robert Rueckert at the Institute for Molecular Virology, University of Wisconsin, Madison, Wis. HRV stocks were propagated, and viral assays were performed in HI-HeLa cells (ATCC). Cells were grown in Minimal Essential Medium, available from Life Technologies, with 10% fetal bovine serum. […]
On the technique in general: Formazan colour is commonly taken as a measure of viable cells.

In a further data set the test system is HRV serotype 10. As to the kind of experiment: Antirhinoviral HI-HeLa Cell Culture Assay (XTT cell protection), HRV serotype 10. The data set is classed as cell-based, human rhinovirus. To be noted: HRV serotype 10, HI-HeLa cells. As to the method: as §1, §2, §3, §4
The next data set concerns HI-HeLa cells. The data set can be described thus: Cytotoxicity (CC50) in mock-infected HI-HeLa cells, antirhinoviral assay. The data set is classed as cell-based.
The subject of the next data set is HRV serotype 2. The data set can be described thus: Antirhinoviral HI-HeLa Cell Culture Assay (XTT cell protection), HRV serotype 2. The data set is classed as cell-based, human rhinovirus. To be noted: HRV serotype 2, HI-HeLa cells. As for the experimental part:
as §1, §2, §3, §4

For a further data set, the system named is HRV serotype 16. As to the kind of experiment: Antirhinoviral HI-HeLa Cell Culture Assay (XTT cell protection), HRV serotype 16. The data set is classed as cell-based, human rhinovirus. To be noted: HRV serotype 16, HI-HeLa cells. As to the method: as §1, §2, §5
For the next data set, the system named is HRV serotype 1A. As to the kind of experiment: Antirhinoviral HI-HeLa Cell Culture Assay (XTT cell protection), HRV serotype 1A. The data set is classed as cell-based, human rhinovirus. To be noted: HI-HeLa cells. As to the method:
as §1, §2, §3, §4

In the case of `CCOC(=O)/C=C/C(CCC(N)=O)NC(=O)C(CC(=O)C(NC(=O)SC1CCCC1)C(C)C)Cc1ccc(C)cc1` [Compound 11, Ethyl-3-(CyPentylSCO-L-ValΨ[COCH2]-L-(p-CH3)Phe-L-Gln)-E-Propenoate], the concentration for a half-maximal effect (EC50) worked out at 0.006 µM with HRV serotype-14; 0.13 µM in the data set on HRV serotype 39; 0.06 µM in the data set on HRV serotype 10; 0.12 µM in the data set with HRV serotype 2; 0.025 µM in the data set on HRV serotype 16; 0.16 µM in the data set on HRV serotype 1A. Further, the CC50 in the data set with HI-HeLa cells (line of HRV serotype 1A), with HI-HeLa cells (line of HRV serotype 2), in the data set on HI-HeLa cells (line of HRV serotype 10), in the data set with HI-HeLa cells (line of HRV serotype 16), in the data set on HI-HeLa cells (line of HRV serotype 39) and in the data set with HI-HeLa cells (line of HRV serotype-14) was over 3 µM in each case.

These data come from patent US6649639B2, “Antipicornaviral compounds, compositions containing them, and methods for their use” (priority 1997, dated 2003).
